# Source: article PMC4923258, “A Recombinant Human Pluripotent Stem Cell Line Stably Expressing Halide-Sensitive YFP-I152L for GABAAR and GlyR-Targeted High-Throughput Drug Screening and Toxicity Testing” (Frontiers in Molecular Neuroscience, 2016)
# Values joined by “and” are separate entries in the source; they are usually repeats but may differ in a detail not shown here. Equal entries are not always repeated. Where two headings read alike, the source gives them in different places.
# Tests used:
# GlyR [1] = details: mean ± SD, n = 10; for nH (Hill coefficient): glycine concentration-response
# Description: (§1) To assess whether the generated recombinant stem cell line is suitable to chloride imaging and functional profiling of GABAARs and GlyRs, NT2-YFP-I152L cells were differentiated into neuronal NT2-N- YFP-I152L cells as described in the Methods section and were seeded at defined density of 2 × 10^4 cells in each well of a 96-well plate. Two days later and approximately 1 h prior to fluorescence imaging, the culture medium was completely removed and was replaced by 50 μl NaCl control solution. The standard NaCl control solution contained (in mM): NaCl 140, KCl 5, CaCl2 2, MgCl2 1, HEPES 10, glucose 10, pH 7.4 using NaOH. The 96-well plate was placed onto the motorized stage of a high-content imaging system and cells were imaged in control solution to record cellular YFP fluorescence in unquenched state. Because YFP-I152L is almost insensitive to chloride, its fluorescence intensity is highest in NaCl solution allowing for optimal focussing into the optical layer of cells. […] Fluorescence quench was calculated at single cell level by quantitative analysis as described in the Methods section. […]
# (§2) The experimental protocol involved imaging each well for 30 s at 2 Hz acquisition rate capturing the initial fluorescence intensity in the control situation as well as the test situation upon receptor activation, respectively. […]
# Cells depicted in fluorescence micrographs were selected manually based on strongest quench for low and intermediate concentrations and based on cell morphology in experiments where high drug concentrations were applied. Registered images of fluorescent cells were segmented and quantitatively analyzed using NIS-Elements software (Nikon, Japan). The fluorescence signal of identified cells was measured in images acquired before and after the addition of agonist solution as the mean of all pixel values within the area of a cell. “% fluorescence quench” in chloride imaging experiments is defined as %fluorescence quench=(Finit−Ffinal)∗100/Finit where Finit and Ffinal are the initial and final values of fluorescence, respectively. […]
# GlyR [2] = details: for Percentage of non-treated NT2-YFP-I152L stem cells responding with at least 20% fluorescence quench: 1 mM saturating glycine
# Source text: (§3) The applicability of the established recombinant in vitro model for high-throughput GABAAR and GlyR-targeted screening in the context of lead identification and NT/DNT testing strongly depends on the proportion of GABAAR and GlyR positive NT2-N cells in the whole cell population. A very small percentage of GABAAR and GlyR expressing NT2-N cells requires a large number of individual experiments including technical and biological replicates to be conducted in order to obtain statistically sound results, potentially compromising the usability of the established cell line for the envisioned application. […] The threshold of 20% fluorescence quench was chosen because, from our experience, any measured cellular fluorescence change within a range of −20 to 20% reflects biological noise typical to the employed assay. As a starting point toward analysing the proportion of GABAAR and GlyR-positive cells we segmented the images of a total of 24 individual experiments from two different differentiation batches (GABAAR, batch #1: n = 7, batch #2: n = 6; GlyR, batch #1: n = 6, batch #2: n = 5) using a modified version of DetecTIFF^© software (Gilbert et al., [2009c]) employing two individual sets of parameters for the identification of small neuronal NT2-N-YFP-I152L and larger non-neuronal NT2-YFP-I152L cells. […] Exemplary segmentation masks created from the image shown in Figure 6A for quantitative analysis of fluorescence intensity and calculation of “% fluorescence quench” in small neuronal NT2-N-YFP-I152L cells and large non-neuronal cells are depicted in Figures 6B,C.
# (§4) Images of fluorescent cells were segmented and quantitatively analyzed using a modified version of DetecTIFF® software (Gilbert et al., [2009c]). In brief, images were segmented using an iterative size and intensity-based thresholding algorithm and the fluorescence signal of identified cells was calculated as the mean of all pixel values within the area of a cell.
# GlyR [3] = format: cell-based, human
# Description: (§5) To this end, human pluripotent NT2-YFP-I152L cells were differentiated into neuronal NT2-N-YFP-I152L cells as described in the Methods section and were seeded at a density of 2 × 10^4 cells in each well of a 96-well plate. 48 h later, the culture medium was completely removed and was replaced by 50 μl NaCl control solution.
# (§6) Approximately 1 h prior to commencement of experiments culture media in 96-well plates was removed manually and was replaced by 50 μl standard control solution, which contained (in mM) NaCl 140, KCl 5, CaCl2 2, MgCl2 1, HEPES 10, and glucose 10 (pH 7.4, NaOH) upon washing the cells once in 50 μl standard control solution. […] All drugs were diluted from stocks at the day of the experiment and experiments were conducted at room temperature.
# (§7) The experimental protocol involved imaging each well for 30 s at 2 Hz acquisition rate capturing the initial fluorescence intensity in the control situation as well as the test situation upon receptor activation, respectively. Liquid handling was performed manually.
# (§8) Cells depicted in fluorescence micrographs were selected manually based on strongest quench for low and intermediate concentrations and based on cell morphology in experiments where high drug concentrations were applied. Registered images of fluorescent cells were segmented and quantitatively analyzed using NIS-Elements software (Nikon, Japan). The fluorescence signal of identified cells was measured in images acquired before and after the addition of agonist solution as the mean of all pixel values within the area of a cell. “% fluorescence quench” in chloride imaging experiments is defined as %fluorescence quench=(Finit−Ffinal)∗100/Finit where Finit and Ffinal are the initial and final values of fluorescence, respectively.
# (§9) Individual concentration responses were constructed by pooling results from ten cells in one well exposed to agonist solution. Concentration-response relationships were fitted with the following equation: F= Fmax+Fmin− Fmax/1+([Agonist]/EC50)^nH where F is the fluorescence corresponding to a particular agonist concentration, [Agonist]; Fmin and Fmax are the minimal and maximal fluorescence values, respectively; EC50 is the concentration that elicits half-maximal activation; and nH is the Hill coefficient. Curve fits were performed using a least squares fitting routine (Origin 7G, OriginLab Corporation). All averaged results are expressed as mean ± SD.
# GABAAR [4] = format: cell-based, human; details: 1 μM GABA
# Description: as §5, §6, §7, §8, §9
# GABAAR [5] = format: cell-based, human; details: GABA concentration-response, mean ± SD, n = 10
# Description: as §1, §2
# GABAAR [6] = test: Proportion of cells with at least 20% fluorescence quench at saturating GABA; format: cell-based, human; details: for Percentage of non-treated NT2-YFP-I152L stem cells responding with at least 20% fluorescence quench: 1 mM saturating GABA; for GABAAR-positive cells as percentage of the overall population / Percentage of cells per image with fluorescence quench of at least 20%: saturating GABA
# Source text: as §3, §4
# GABAARs = tested on: GABAARs; parameters: method as in Kumamoto and Murata, 1995; details: ref Kumamoto and Murata, 1995; cited from earlier work
# GlyRs = tested on: GlyRs; parameters: method as in Harvey et al., 1999; details: ref Harvey et al., 1999, cited from earlier work
# [7] = 3 μM glycine, n = 10, read-out: IC50 (Glycine)
# [8] = read-out: IC50 (Glycine), 3 μM glycine, n = 10
compound,measurement,setting,value
"NCC(=O)O [Glycine, glycine]",nH (Hill coefficient),GlyR [1],1.5
same,nH (Hill coefficient),GlyR [1]; listed as glycine,1.5 ± 0.2
same,EC50,"GlyR [1]; read-out: EC50 (half-maximal activation concentration), glycine 0.1-1000 μM in NaI solution, quench 30 s after activation",4.3 µM
same,Percentage of cells per image with fluorescence quench of at least 20%,GlyR [2],36 ± 14% and 35 ± 7%
same,Percentage of non-treated NT2-YFP-I152L stem cells responding with at least 20% fluorescence quench,GlyR [2]; replicate #1,0.68%
same,Percentage of non-treated NT2-YFP-I152L stem cells responding with at least 20% fluorescence quench,GlyR [2]; replicate #2,0.92%
same,GlyR-positive cells as percentage of the overall population,"GlyR [2]; saturating glycine, batch #1",20 ± 9%
same,GlyR-positive cells as percentage of the overall population,"GlyR [2]; saturating glycine, batch #2",19 ± 4%
same,Percentage of cells per image with fluorescence quench of at least 20%,"GlyR [2]; saturating glycine, large non-neuronal cells, batch #1, n = 6",2 ± 1%
same,Percentage of cells per image with fluorescence quench of at least 20%,"GlyR [2]; saturating glycine, large non-neuronal cells, batch #2, n = 5",4 ± 2%
"N#Cc1nn(-c2c(Cl)cc(C(F)(F)F)cc2Cl)c(N)c1[S+]([O-])C(F)(F)F (stereo not drawn) [Fipronil, fipronil]",IC50,GlyR [3]; [7],1.5 µM
same,IC50,"GABAAR [4]; read-out: IC50 (GABA), n = 10",10.8 µM
"NCCCC(=O)O [GABA, γ-aminobutyric acid]",nH (Hill coefficient),GABAAR [5],1.8 ± 0.4 and 1.8
same,Percentage of non-treated NT2-YFP-I152L stem cells responding with at least 20% fluorescence quench,GABAAR [6]; replicate #1,0.62%
same,Percentage of non-treated NT2-YFP-I152L stem cells responding with at least 20% fluorescence quench,GABAAR [6]; replicate #2,0.37%
same,GABAAR-positive cells as percentage of the overall population,GABAAR [6]; batch #1,17 ± 8%
same,GABAAR-positive cells as percentage of the overall population,GABAAR [6]; batch #2,21 ± 9%
same,Percentage of cells per image with fluorescence quench of at least 20%,"GABAAR [6]; large non-neuronal cells, batch #1, n = 7",3 ± 1%
same,Percentage of cells per image with fluorescence quench of at least 20%,"GABAAR [6]; large non-neuronal cells, batch #2, n = 6",6 ± 2%
same,Percentage of cells per image with fluorescence quench of at least 20%,"GABAAR [6]; small cells (NT2-N-YFP-I152L), batch #1, n = 7",28 ± 13%
same,Percentage of cells per image with fluorescence quench of at least 20%,"GABAAR [6]; small cells (NT2-N-YFP-I152L), batch #2, n = 6",32 ± 12%
"O=C1C[C@@H]2OCC=C3CN4CC[C@]56c7ccccc7N1[C@H]5[C@H]2[C@H]3C[C@H]46 [Strychnine, strychnine]",IC50,GlyR [3]; [8],0.0172 µM
same,Inhibition of GABA-induced anion influx (in words),GABAAR [4],specifically inhibited glycine but not GABA-induced anion-influx
"[Cl-].[Cl-].[Zn+2] [Zinc, zinc chloride]",Concentrations at which inhibition of glycine-induced anion influx was observed,GlyR [3]; 3 μM glycine,> 100 µM
same,IC50,"GlyR [3]; 3 μM glycine, zinc 10 nM-1 mM, could not be calculated, presumed, read-out: IC50 (glycine-induced anion influx)",> 1000 µM
same,Increase of glycine-induced fluorescence quench,"GlyR [3]; in presence of 1 and 10 μM zinc, not significant",about 10%
same,Concentrations at which inhibition of GABA-induced anion influx was observed,GABAAR [4],> 100 µM
same,IC50,"GABAAR [4]; zinc 10 nM-1 mM, could not be calculated, presumed, read-out: IC50 (GABA-induced anion influx)",> 1000 µM
same,Concentrations inhibiting GABAARs,GABAARs,> 10 µM
same,Concentrations inhibiting glycine-activated currents,GlyRs; high concentrations,> 100 µM
same,Concentrations potentiating glycine-activated currents,GlyRs; low concentrations,< 10 µM
"CN1CCc2cc3c(cc2[C@H]1[C@@H]1OC(=O)c2c1ccc1c2OCO1)OCO3 [Bicuculline, bicuculline]",Sensitivity of glycine-induced I- influx compared to GABA-dependent anion influx (lower),GlyR [3]; ratio of IC50 vs glycine and IC50 vs GABA,about 10 fold
same,IC50,GlyR [3]; [8],13.4 µM
same,IC50,"GABAAR [4]; read-out: IC50 (GABA), n = 10",1.1 µM
"Cl[C@H]1[C@H](Cl)[C@@H](Cl)[C@@H](Cl)[C@H](Cl)[C@H]1Cl [Lindane, lindane]",IC50,GlyR [3]; [7],0.0781 µM
same,Inhibition of GABA-induced anion influx (in words),GABAAR [4],no dose-dependent inhibitory activity
picrotoxin,IC50,GlyR [3]; [7],1.1 µM
same,Sensitivity of GlyR compared to GABAARs (higher),GlyR [3]; ratio of IC50 vs GABA and IC50 vs glycine,approximately 5 fold
same,IC50,"GABAAR [4]; read-out: IC50 (GABA), n = 10",5.8 µM
